Data as given in ChEMBL document CHEMBL4732190, “Identification of Potent and Long-Acting Single-Chain Peptide Mimetics of Human Relaxin-2 for Cardiovascular Diseases” (J Med Chem, 2021).
*1 amine or outer side, *2 acyl side, *3 side chain or, on linkers, in order; H or OH if unused. Where a SMILES comes first, the peptide text is derived from it. [ ]: non-standard residue; d: D form. ξ: configuration not given here. β2hAla(2S) = C[C@@H](CN[*:1])C(=O)[*:2]; X4 = CCCC[C@H](O[*:1])C(=O)[*:2]; ξβ2hAla = CC(CN[*:1])C(=O)[*:2]; hLys = NCCCCC[C@H](N)C(=O)O

Assays:
[1] = molecular target: T1, Relaxin receptor 1 (Homo sapiens, UniProt Q9HBX9); assay: Agonist activity at RXFP1 endogenously expressed in human OVCAR-5 cells assessed as increase in IBMX-induced cAMP accumulation pretreated with IBMX for 40 mins followed by compound addition and measured after 30 mins by HTRF assay; format: functional, cell-based
T1 sequence (Q9HBX9 whole entry): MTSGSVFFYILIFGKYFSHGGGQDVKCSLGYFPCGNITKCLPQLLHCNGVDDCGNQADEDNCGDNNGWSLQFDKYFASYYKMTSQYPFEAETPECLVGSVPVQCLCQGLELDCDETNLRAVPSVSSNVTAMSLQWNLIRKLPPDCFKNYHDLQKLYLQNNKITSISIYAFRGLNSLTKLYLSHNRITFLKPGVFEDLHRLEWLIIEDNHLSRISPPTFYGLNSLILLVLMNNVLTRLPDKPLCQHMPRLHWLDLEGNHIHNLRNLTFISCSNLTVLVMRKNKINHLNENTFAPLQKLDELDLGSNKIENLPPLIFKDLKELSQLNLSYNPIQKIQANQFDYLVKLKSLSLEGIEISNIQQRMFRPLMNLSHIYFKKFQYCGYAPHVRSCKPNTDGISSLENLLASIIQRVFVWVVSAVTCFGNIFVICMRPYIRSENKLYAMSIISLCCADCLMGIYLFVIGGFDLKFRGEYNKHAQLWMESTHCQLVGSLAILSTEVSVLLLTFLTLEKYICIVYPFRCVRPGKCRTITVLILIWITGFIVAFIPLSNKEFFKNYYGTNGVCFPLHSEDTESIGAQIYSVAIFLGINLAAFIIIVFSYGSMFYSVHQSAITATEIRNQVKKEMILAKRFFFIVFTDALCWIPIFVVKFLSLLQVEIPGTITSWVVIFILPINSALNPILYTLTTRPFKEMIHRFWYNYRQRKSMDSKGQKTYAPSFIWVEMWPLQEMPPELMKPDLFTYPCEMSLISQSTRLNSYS

[2] = molecular target: T2, Relaxin receptor 1 (Homo sapiens) (UniProt Q9HBX9); assay: Agonist activity at RXFP1 endogenously expressed in human OVCAR-5 cells assessed as increase in IBMX-induced cAMP accumulation pretreated with IBMX for 40 mins followed by compound addition and measured after 30 mins by HTRF assay relative to relaxin; format: functional, cell-based; conditions: filed as agonist
T2 sequence (whole entry): T1 sequence (Q9HBX9 whole entry)

EC50 [1] [nM]	Emax [2] [%]	Molecule
43	91	CC[C@H](C)[C@H](NC(=O)C(C)CNC(=O)[C@H](NC(=O)[C@H](CCC(N)=O)NC(=O)[C@H](C)NC(=O)[C@H](CCCNC(=N)N)NC(=O)[C@@H](NC(=O)[C@H](CCCCN)NC(=O)[C@H](CCC(=O)O)NC(=O)[C@H](CCCNC(=N)N)NC(=O)CNC(=O)[C@H](CCC(=O)O)NC(=O)[C@H](CC(C)C)NC(C)=O)C(C)C)[C@@H](C)CC)C(=O)N[C@@H](CCC(=O)O)C(=O)NCC(=O)N[C@@H](CCSC)C(=O)N[C@@H](CO)C(=O)N[C@@H](CCCCN)C(=O)N[C@@H](Cc1c[nH]c2ccccc12)C(=O)N[C@@H](CO)C(=O)N[C@@H](CCCCN)C(=O)N[C@@H](CCCNC(=N)N)C(=O)N[C@@H](CCCCN)C(=O)N[C@@H](CCCCN)C(N)=O (stereo not given in full)
17	95	CC[C@H](C)[C@H](NC(=O)[C@H](CCC(N)=O)NC(=O)[C@H](C)NC(=O)[C@H](CCCNC(=N)N)NC(=O)[C@@H](NC(=O)[C@H](CCCCN)NC(=O)[C@H](CCC(=O)O)NC(=O)[C@H](CCCNC(=N)N)NC(=O)CNC(=O)[C@H](CCC(=O)O)NC(=O)[C@H](CC(C)C)NC(=O)[C@H](CCCCN)NC(=O)[C@@H](NC(=O)[C@@H](NC(=O)[C@H](CCC(=O)O)NC(=O)[C@H](CCC(=O)O)NC(C)=O)C(C)C)[C@@H](C)CC)C(C)C)C(=O)NCC(C)C(=O)NCC(C)C(=O)N[C@@H](CCC(=O)O)C(=O)NCC(=O)N[C@@H](CCSC)C(=O)N[C@@H](CO)C(=O)N[C@@H](CCCCN)C(=O)N[C@@H](Cc1c[nH]c2ccccc12)C(=O)N[C@@H](CO)C(=O)NC[C@H](C)C(=O)N[C@@H](CCCNC(=N)N)C(=O)N[C@@H](CCCCN)C(=O)N[C@@H](CCCCN)C(=O)O (stereo partly drawn) (Ac-EEVIKLEGREKVRAQI[ξβ2hAla][ξβ2hAla]EGMSKWS[β2hAla(2S)]RKK-OH)
45	95	CCCC[C@H](OC(=O)CNC(=O)[C@H](CCC(=O)O)NC(=O)[C@@H](C)CNC(=O)[C@@H](C)CNC(=O)[C@@H](NC(=O)[C@H](CCCCCNC(C)=O)NC(=O)[C@@H](C)CNC(=O)[C@@H](C)CNC(=O)[C@H](CCCCN)NC(=O)[C@H](C)NC(=O)[C@H](CCCNC(=N)N)NC(=O)[C@@H](NC(=O)[C@H](CCCCN)NC(=O)[C@H](CCC(=O)O)NC(=O)[C@H](CCCNC(=N)N)NC(=O)CNC(=O)[C@H](CCC(=O)O)NC(=O)[C@H](CC(C)C)NC(C)=O)C(C)C)[C@@H](C)CC)C(=O)N[C@@H](CO)C(=O)N[C@H](C(=O)N[C@@H](Cc1c[nH]c2ccccc12)C(=O)N[C@@H](CO)C(=O)NC[C@H](C)C(=O)N[C@@H](CCCNC(=N)N)C(=O)N[C@@H](CCCCN)C(=O)N[C@@H](CCCCN)C(N)=O)[C@@H](C)O (Ac-LEGREKVRAK[β2hAla(2S)][β2hAla(2S)][hLys](Ac)I[β2hAla(2S)][β2hAla(2S)]EG[X4]STWS[β2hAla(2S)]RKK-NH2)
32	96	CCCC[C@H](OC(=O)CNC(=O)[C@H](CCC(=O)O)NC(=O)[C@@H](C)CNC(=O)[C@@H](NC(=O)[C@H](CCC(N)=O)NC(=O)[C@H](C)NC(=O)[C@H](CCCNC(=N)N)NC(=O)[C@@H](NC(=O)[C@H](CCCCN)NC(=O)[C@H](CCC(=O)O)NC(=O)[C@H](CCCNC(=N)N)NC(=O)CNC(=O)[C@H](CCC(=O)O)NC(=O)[C@H](CC(C)C)NC(C)=O)C(C)C)[C@@H](C)CC)C(=O)N[C@@H](CO)C(=O)N[C@H](C(=O)N[C@@H](Cc1c[nH]c2ccccc12)C(=O)N[C@@H](CO)C(=O)NC[C@H](C)C(=O)N[C@@H](CCCNC(=N)N)C(=O)N[C@@H](CCCCN)C(=O)N[C@@H](CCCCN)C(=O)N[C@@H](CCCCCNC(C)=O)C(N)=O)[C@@H](C)O (Ac-LEGREKVRAQI[β2hAla(2S)]EG[X4]STWS[β2hAla(2S)]RKK[hLys](Ac)-NH2)
19.5	99	CC[C@H](C)[C@H](NC(=O)[C@H](CCC(N)=O)NC(=O)[C@H](C)NC(=O)[C@H](CCCNC(=N)N)NC(=O)[C@@H](NC(=O)[C@H](CCCCN)NC(=O)[C@H](CCC(=O)O)NC(=O)[C@H](CCCNC(=N)N)NC(=O)CNC(=O)[C@H](CCC(=O)O)NC(=O)[C@H](CC(C)C)NC(=O)[C@H](CCCCN)NC(=O)[C@@H](NC(=O)[C@@H](NC(C)=O)C(C)C)[C@@H](C)CC)C(C)C)C(=O)NC[C@H](C)C(=O)NC[C@H](C)C(=O)N[C@@H](CCC(=O)O)C(=O)NCC(=O)N[C@@H](CCSC)C(=O)N[C@@H](CO)C(=O)N[C@@H](CCCCN)C(=O)N[C@@H](Cc1c[nH]c2ccccc12)C(=O)N[C@@H](CO)C(=O)NC[C@H](C)C(=O)N[C@@H](CCCNC(=N)N)C(=O)N[C@@H](CCCCN)C(=O)N[C@@H](CCCCN)C(N)=O (Ac-VIKLEGREKVRAQI[β2hAla(2S)][β2hAla(2S)]EGMSKWS[β2hAla(2S)]RKK-NH2)
45	97	CC[C@H](C)[C@H](NC(=O)[C@H](CCC(N)=O)NC(=O)[C@H](C)NC(=O)[C@H](CCCNC(=N)N)NC(=O)[C@@H](NC(=O)[C@H](CCCCN)NC(=O)[C@H](CCC(=O)O)NC(=O)[C@H](CCCNC(=N)N)NC(=O)CNC(=O)[C@H](CCC(=O)O)NC(=O)[C@H](CC(C)C)NC(=O)[C@H](CCCCN)NC(=O)[C@@H](NC(=O)[C@@H](NC(=O)[C@H](CCC(=O)O)NC(=O)[C@H](CCC(=O)O)NC(C)=O)C(C)C)[C@@H](C)CC)C(C)C)C(=O)NC[C@H](C)C(=O)N[C@H](C(=O)N[C@@H](CCC(=O)O)C(=O)NCC(=O)N[C@@H](CCSC)C(=O)N[C@@H](CO)C(=O)N[C@@H](CCCCN)C(=O)N[C@@H](Cc1c[nH]c2ccccc12)C(=O)N[C@@H](CO)C(=O)N[C@@H](CCCCN)C(=O)N[C@@H](CCCNC(=N)N)C(=O)N[C@@H](CCCCN)C(=O)N[C@@H](CCCCN)C(N)=O)[C@@H](C)CC (HELM PEPTIDE1{[ac].E.E.V.I.K.L.E.G.R.E.K.V.R.A.Q.I.[C[C@@H](CN[*:1])C(=O)[*:2]].I.E.G.M.S.K.W.S.K.R.K.K.[am]}$$$$V2.0)
124	98	CC[C@H](C)[C@H](NC(=O)[C@H](CCC(N)=O)NC(=O)[C@H](C)NC(=O)[C@H](CCCNC(=N)N)NC(=O)[C@@H](NC(=O)[C@H](CCCCN)NC(=O)[C@H](CCC(=O)O)NC(=O)[C@H](CCCNC(=N)N)NC(=O)CNC(=O)[C@H](CCC(=O)O)NC(=O)[C@H](CC(C)C)NC(=O)[C@H](CCCCN)NC(=O)[C@@H](NC(=O)[C@@H](NC(=O)[C@H](CCC(=O)O)NC(=O)[C@H](CCC(=O)O)NC(C)=O)C(C)C)[C@@H](C)CC)C(C)C)C(=O)NC[C@H](C)C(=O)N[C@H](C(=O)N[C@@H](CO)C(=O)NCC(=O)N[C@@H](CCSC)C(=O)N[C@@H](CO)C(=O)N[C@H](C(=O)N[C@@H](Cc1c[nH]c2ccccc12)C(=O)N[C@@H](CO)C(=O)N[C@@H](CCCCN)C(=O)N[C@@H](CCCNC(=N)N)C(=O)N[C@@H](CCCCN)C(=O)N[C@@H](CCCCN)C(N)=O)[C@@H](C)O)[C@@H](C)CC (HELM PEPTIDE1{[ac].E.E.V.I.K.L.E.G.R.E.K.V.R.A.Q.I.[C[C@@H](CN[*:1])C(=O)[*:2]].I.S.G.M.S.T.W.S.K.R.K.K.[am]}$$$$V2.0)
–	70	Ac-VIKLSGRELVRAQIAISGMSTWSKRSL-NH2
